Measured values from ChEMBL document CHEMBL1150349, “Design and synthesis of hydroxy-alkynoic acids and their methyl esters as novel activators of BK channels” (Bioorg Med Chem Lett, 2008).
Activity calls are given as the source filed them. The calls are words filed in the database; no cut-off is given here.

Target: Calcium-activated potassium channel subunit alpha-1 (Rattus norvegicus) (UniProt Q62976)
Assay: Activation of BK channel in rat cerebral myocytes by voltage patch clamp method
Assay type: cell-based

Sequence of Calcium-activated potassium channel subunit alpha-1 (Rattus norvegicus) (Q62976 whole entry): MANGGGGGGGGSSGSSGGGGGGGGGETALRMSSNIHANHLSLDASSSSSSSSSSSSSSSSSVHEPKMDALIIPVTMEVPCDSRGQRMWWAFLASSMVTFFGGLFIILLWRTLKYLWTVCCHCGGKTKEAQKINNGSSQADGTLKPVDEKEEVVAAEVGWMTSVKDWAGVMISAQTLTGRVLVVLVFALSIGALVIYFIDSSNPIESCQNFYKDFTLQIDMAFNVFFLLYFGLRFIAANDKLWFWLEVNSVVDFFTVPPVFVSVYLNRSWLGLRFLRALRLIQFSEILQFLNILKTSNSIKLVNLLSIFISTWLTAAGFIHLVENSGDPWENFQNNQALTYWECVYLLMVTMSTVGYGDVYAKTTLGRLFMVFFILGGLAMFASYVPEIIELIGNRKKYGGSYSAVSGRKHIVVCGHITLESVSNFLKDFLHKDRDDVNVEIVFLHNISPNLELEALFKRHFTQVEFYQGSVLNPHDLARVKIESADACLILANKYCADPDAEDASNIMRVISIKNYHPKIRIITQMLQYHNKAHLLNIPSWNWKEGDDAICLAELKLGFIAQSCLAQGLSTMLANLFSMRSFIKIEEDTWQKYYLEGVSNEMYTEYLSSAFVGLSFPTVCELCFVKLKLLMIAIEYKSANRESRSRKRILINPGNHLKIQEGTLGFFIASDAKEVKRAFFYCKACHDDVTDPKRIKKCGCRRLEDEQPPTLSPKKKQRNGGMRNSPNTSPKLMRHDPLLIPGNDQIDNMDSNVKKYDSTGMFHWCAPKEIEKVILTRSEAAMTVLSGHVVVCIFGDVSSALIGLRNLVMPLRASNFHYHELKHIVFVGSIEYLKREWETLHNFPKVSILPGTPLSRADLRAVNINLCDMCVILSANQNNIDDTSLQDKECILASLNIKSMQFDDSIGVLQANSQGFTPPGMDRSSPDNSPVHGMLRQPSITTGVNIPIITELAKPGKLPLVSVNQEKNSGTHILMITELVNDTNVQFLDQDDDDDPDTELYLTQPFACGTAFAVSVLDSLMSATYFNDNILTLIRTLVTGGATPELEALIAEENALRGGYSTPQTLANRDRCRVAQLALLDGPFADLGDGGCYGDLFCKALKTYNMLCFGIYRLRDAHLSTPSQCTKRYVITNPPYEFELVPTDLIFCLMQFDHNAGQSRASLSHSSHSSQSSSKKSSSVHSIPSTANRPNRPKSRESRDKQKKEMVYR

SMILES	Activity
O=C(O)CCCCCC#CCCCCO	Active
COC(=O)CCCCCCCC#CCCCCO	inactive
O=C(O)CCCCCC#CCCCO	Active
COC(=O)CCCC#CCCO	inactive
COC(=O)CCCCC#CCCCO	Active
COC(=O)CCCCCCCCCC#CCCCCO	inactive
